According to US20230201203A1, “METHODS OF TREATMENT USING A[…] PHARMACEUTICAL FORMULATIONS COMPRISING ANTIFOLATES” (EMPHASCIENCE, INC., priority 2020, published 2023):

Assay: in vitro
Settings: human

Nc1nc2[nH]cc(CCc3ccc(C(=O)N[C@@H](CCC(=O)O)C(=O)O)cc3)c2c(=O)[nH]1 [pemetrexed]
CC50: ≥ 74 µg/mL
